The values below come from patent publication US10961234B2, “Oxazole derivatives for use in the treatment of cancer” (LIFEARC, priority 2016, dated 2021).

In experiment [1] the test system is LM2 and MDA-MB-231 breast cancer cell lines. The experiment in a line: PAICS 2D cell proliferation assay. In kind it is cell-based. The following applies: Homo sapiens; 72 hours incubation; cell line (LM2 or MDA-MB-231) not given. How it is done:
Frozen cryovial stocks of LM2 and MDA-MB-231 breast cancer cell lines were thawed and cultured in 4.5 g/L glucose DMEM (31966-047, Invitrogen) supplemented with 10% Fetal Bovine Serum (10500-064, Invitrogen) until confluent in a T175 flask. Cells were incubated at 37° C. with 5% CO2 in a humidified incubator.
Cells were collected from T175 flasks by washing with PBS (10010-056, Invitrogen) and dissociated using Accutase (A6964, Sigma Aldrich). This was followed by centrifuging (1200 rpm, 5 min) and resuspending the cells in 10 ml of media containing 1% penicillin/streptomycin (15140-122, Invitrogen). Cells were counted by trypan blue exclusion method using an automated cell counter (Cellometer) and diluted to a concentration of 40,000/ml. 1000 cells were then seeded into 384-well white-walled plates (Corning, 3707) in a volume of 25 μl. Plates were incubated overnight at 37° C. with 5% CO2.
After 24 hours, PAICS compounds were added onto the assay plates using an HP D300 Digital Dispenser (Hewlett Packard). 10 mM stocks were used and dispensed as a 10 point concentration response curve (CRC) ½ log dilution series with a final top concentration of 100 μM. Controls were added onto each plate: positive controls included Staurosporine CRC (100 μM stock dispensed as a 10 point CRC ½ log dilution series with a final top concentration of 1 μM) and PAICS compound MRT00211919 (10 mM stock dispensed as a 10 point CRC ½ log dilution series with a final top concentration of 100 μM); a high control of Staurosporine (0.1 μM (LM2), 0.316 μM (MDA-MB-231) FAC) and a low control of media containing 1% DMSO. A final concentration of 1% DMSO was then added across the plates for normalisation. Following compound addition, assay plates were incubated for 72 hours at 37° C. with 5% CO2.
After 72 h incubation, dead and viable cells were measured in each assay plate. Cytotoxicity was assessed through fluorescent DNA staining using the CellTox™ Green Cytotoxicity Assay kit (G8743, Promega) following the manufacturer's multiplexing protocol. Impaired cell membrane integrity results in the access of dye to stain DNA allowing quantification of dead cells. Cell viability was determined following ATP quantification using the CellTiter-Glo® Luminescent Cell Viability Assay kit (G7572, Promega) following the manufacturer's protocol. ATP released from lysed cells allowed for the generation of a signal proportional to the number of cells present in the well. All endpoint reads were performed using the PheraSTAR Plus (BMG Labtech). Data is expressed as % viable cells and % dead cells against controls (mean±SEM of duplicate curves).

Experiment [2] deals with T1, WT full length PAICS (Homo sapiens, UniProt P22234).
T1 construct: 5 μl WT full length PAICS (final assay concentration, fac, 2.5 nM) in basic buffer
T1 sequence (P22234 1-425): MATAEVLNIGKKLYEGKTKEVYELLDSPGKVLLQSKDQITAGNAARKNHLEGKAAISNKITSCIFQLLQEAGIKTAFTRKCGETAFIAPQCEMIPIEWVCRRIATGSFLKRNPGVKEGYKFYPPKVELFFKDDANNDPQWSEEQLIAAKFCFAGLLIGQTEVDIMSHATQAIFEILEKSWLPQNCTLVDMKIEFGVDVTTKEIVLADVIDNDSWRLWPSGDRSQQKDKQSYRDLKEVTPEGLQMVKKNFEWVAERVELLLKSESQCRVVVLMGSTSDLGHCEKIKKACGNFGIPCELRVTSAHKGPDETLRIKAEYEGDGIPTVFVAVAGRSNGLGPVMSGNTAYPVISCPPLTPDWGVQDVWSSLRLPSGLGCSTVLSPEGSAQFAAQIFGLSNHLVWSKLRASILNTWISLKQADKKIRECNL
Put plainly: Biochemical assay to measure PAICS activity (Transcreener ADP2 FI, SAICAR synthetase reaction). Conditions: PAICS 2.5 nM, 30 mins pre-incubation, ADP detection by fluorescence intensity. The text has this:
The biochemical assay was used to measure PAICS SAICAR synthetase-mediated conversion of CAIR, aspartic acid and ATP to SAICAR, ADP and inorganic phosphate (PI), post-AIR/CAIR equilibration (see FIG. 3). This was achieved by detecting the ADP generated during the reaction, using Bellbrook Lab's Transcreener ADP^2 FI assay. An increase in the fluorescence intensity is directly proportional to the amount of PAICS activity.
The Transcreener ADP^2 FI assay is a homogeneous competitive displacement fluorescence intensity assay which uses direct immunodetection of ADP. Displacement of the tracer by ADP causes an increase in the fluorescence at excitation 590 nm and emission 617 nm (FIG. 3).
5 μl WT full length PAICS (final assay concentration, fac, 2.5 nM) in basic buffer, added to black, non-binding, 384-well plates (Corning #3575), columns 1 to 22.5 μl basic buffer was added to columns 23+24 (negative control). PAICS stock at 31.9 μM from the PI's lab (Steve Firestine). Basic buffer contained 50 mM Tris-HCl pH8 and 0.5 mM EDTA, fac.
1 μl compound in 100% DMSO added per well, or 1 μl 100% DMSO to positive controls (columns 1+2) and negative controls (columns 23+24). Final assay top concentration of compound either 1 mM or 30 μM, serially diluted with half-log dilutions across the plate in duplicate (one 10-point concentration response curve across wells 3 to 12, another across 13 to 22). Compounds pre-incubated with PAICS enzyme for 30 mins at RT.
2 μl CAIR added (fac 10 μM) in basic buffer plus 25 mM MgCl2 and 50 mM KHCO3 fac to all wells. CAIR stock 50 mM from Steve Firestine's lab. 1 hr RT incubation for AIR-CAIR equilibration. NB: ˜50% CAIR is decarboxylated during equilibration therefore 5 μM remains for the synthetase reaction.
2 μl ATP/aspartic acid added (fac 30 μM/180 μM) in reaction buffer to all wells. 30 mins RT incubation for appropriate level of ATP turnover. Reaction buffer contained basic buffer plus 10 mM DTT, 0.01% BSA and 0.01% Brij 35, fac.
10 μl ADP detection reagent added to all wells (as per instructions, Transcreener ADP^2 FI kit, BellBrook Labs #3013-10K). Incubation for 1 h at RT to allow antibody equilibration. Fluorescence intensity determined using a Tecan Safire2 (excitation at 590 nm, emission at 617 nm).

In turn, `CN1CCN(CCn2cc(-c3ccc(Cl)c(NC(=O)c4coc(N)n4)c3)cn2)CC1` [Example 57, 2-Amino-N-(2-chloro-5-(1-(2-(4-methylpiperazin-1-yl)ethyl)-1H-pyrazol-4-yl)phenyl)oxazole-4-carboxamide] had an EC50 in experiment [1] of 250 to 500 nM. For the same compound, the IC50 in experiment [2] lay within 25 to 100 nM.
For `Nc1nc(C(=O)Nc2cc(-c3ccn(C4CCNCC4)n3)ccc2Cl)co1` [Example 54, 2-amino-N-{2-chloro-5-[1-(piperidin-4-yl)-1H-pyrazol-3-yl]phenyl}-1,3-oxazole-4-carboxamide], in that order: 250 to 500 nM and 10 to 25 nM.
In the case of `CNC1CCCN(Cc2ncc(-c3ccc(Cl)c(NC(=O)c4coc(N)n4)c3)s2)C1` (stereo not drawn) [Example 95, 2-Amino-N-[2-chloro-5-(2-{[3-(methylamino)piperidin-1-yl]methyl}-1,3-thiazol-5-yl)phenyl]-1,3-oxazole-4-carboxamide], the half-maximal effective concentration (EC50) in experiment [1] lay within 100 to 250 nM. In addition, the IC50 in experiment [2] is < 10 nM.
In turn, `CN(C)CCOc1ncc(-c2ccc(Cl)c(NC(=O)c3coc(N)n3)c2)cn1` [Example 74, 2-Amino-N-(2-chloro-5-(2-(2-(dimethylamino)ethoxy)pyrimidin-5-yl)phenyl)oxazole-4-carboxamide] displayed an EC50 in experiment [1] of 250 to 500 nM. In experiment [2], this compound gave an IC50 of 25 to 100 nM.
`Nc1nc(C(=O)Nc2cc(-c3cnc(OC4CCNCC4)s3)ccc2Cl)co1` [Example 87, 2-Amino-N-{2-chloro-5-[2-(piperidin-4-yloxy)-1,3-thiazol-5-yl]phenyl}-1,3-oxazole-4-carboxamide]: the EC50 in experiment [1] is < 100 nM. In experiment [2], the 50% inhibitory concentration (IC50) was < 10 nM.
`Nc1nc(C(=O)Nc2cc(-c3ccc(CN[C@H]4CC[C@H](N)CC4)nc3)ccc2Cl)co1` [Example 77, 2-Amino-N-[5-(6-{[(trans-4-aminocyclohexyl)amino]methyl}pyridin-3-yl)-2-chlorophenyl]-1,3-oxazole-4-carboxamide] registered a concentration giving a half-maximal response (EC50) in experiment [1] of 250 to 500 nM. The compound further gave a 50% inhibitory concentration (IC50) in experiment [2] of 10 to 25 nM.
In the case of `CN(C)CCC(=O)N1CC(Cn2cc(-c3ccc(Cl)c(NC(=O)c4coc(N)n4)c3)cn2)C1` [Example 65, 2-Amino-N-[2-chloro-5-{1-([1-(N,N-dimethyl-beta-alanyl)azetidin-3-yl]methyl}-1H-pyrazol-4-yl)phenyl]-1,3-oxazole-4-carboxamide], the half-maximal effective concentration (EC50) in experiment [1] was in the range of 250 to 500 nM. The compound also displayed an IC50 in experiment [2] of 25 to 100 nM.
In experiment [1], `CC(C)NCCCOc1ccc(-c2ccc(Cl)c(NC(=O)c3coc(N)n3)c2)cn1` [Example 71, 2-Amino-N-(2-chloro-5-(6-(3-(isopropylamino)propoxy)pyridin-3-yl)phenyl)oxazole-4-carboxamide] registered a concentration giving a half-maximal response (EC50) of 100 to 250 nM. Further, in experiment [2], the IC50 lay in the range of 10 to 25 nM.
For `Nc1nc(C(=O)Nc2cc(-c3cnn(CCCNC4CC4)c3)ccc2Cl)co1` [Example 48, 2-Amino-N-(2-chloro-5-(1-(3-(cyclopropylamino)propyl)-1H-pyrazol-4-yl)phenyl)oxazole-4-carboxamide], in that order: 100 to 250 nM and 10 to 25 nM.
The compound `Nc1nc(C(=O)Nc2cc(-c3cnc(CN4CCNCC4)s3)ccc2Cl)co1` [Example 90, 2-Amino-N-{2-chloro-5-[2-(piperazin-1-ylmethyl)-1,3-thiazol-5-yl]phenyl}-1,3-oxazole-4-carboxamide] returned a half-maximal effective concentration (EC50) in experiment [1] of 100 to 250 nM. The compound also yielded an IC50 in experiment [2] of 10 to 25 nM.
In experiment [1], `N#Cc1nn(C2CCNCC2)cc1-c1ccc(Cl)c(NC(=O)c2coc(N)n2)c1` [Example 53, 2-Amino-N-(2-chloro-5-(3-cyano-1-(piperidin-4-yl)-1H-pyrazol-4-yl)phenyl)oxazole-4-carboxamide] came in with an EC50 of 100 to 250 nM. Besides, the 50% inhibitory concentration (IC50) in experiment [2] was in the range of 10 to 25 nM.
Take `CNCC1CCN(Cc2ncc(-c3ccc(Cl)c(NC(=O)c4coc(N)n4)c3)s2)CC1` [Example 94, 2-Amino-N-{2-chloro-5-[2-({4-[(methylamino)methyl]piperidin-1-yl}methyl)-1,3-thiazol-5-yl]phenyl}-1,3-oxazole-4-carboxamide]: in experiment [1], the EC50 is < 100 nM. Moreover, the IC50 in experiment [2] fell in the range of 10 to 25 nM.
In experiment [1], `CN1CCC(NC(=O)Cn2cc(-c3ccc(Cl)c(NC(=O)c4coc(N)n4)c3)cn2)CC1` [Example 61, 2-Amino-N-[2-chloro-5-(1-{2-[(1-methylpiperidin-4-yl)amino]-2-oxoethyl}-1H-pyrazol-4-yl)phenyl]-1,3-oxazole-4-carboxamide] registered an EC50 of 250 to 500 nM. Also, the half-maximal inhibitory concentration (IC50) in experiment [2] lay in the range of 25 to 100 nM.
In experiment [1], `CC1CN(C(=O)Cn2cc(-c3ccc(Cl)c(NC(=O)c4coc(N)n4)c3)cn2)CCN1` (stereo not drawn) [Example 60, 2-Amino-N-(2-chloro-5-{1-[2-(3-methylpiperazin-1-yl)-2-oxoethyl]-1H-pyrazol-4-yl}phenyl)-1,3-oxazole-4-carboxamide] showed an EC50 of 250 to 500 nM. Besides, in experiment [2], the IC50 is > 100 nM.
`CN(C)CCCn1cc(-c2ccc(Cl)c(NC(=O)c3coc(N)n3)c2)cn1` [Example 43, 2-Amino-N-(2-chloro-5-{1-[3-(dimethylamino)propyl]-1H-pyrazol-4-yl}phenyl)-1,3-oxazole-4-carboxamide]: the EC50 in experiment [1] lay within 100 to 250 nM. For the same compound, in experiment [2], the IC50 lay in the range of 25 to 100 nM.
For `CNCCn1cc(-c2ccc(Cl)c(NC(=O)c3coc(N)n3)c2)cn1` [Example 50, 2-Amino-N-(2-chloro-5-(1-(2-(methylamino)ethyl)-1H-pyrazol-4-yl)phenyl)oxazole-4-carboxamide], in that order: 100 to 250 nM and 10 to 25 nM.
As for `CNC1CCC(n2cc(-c3ccc(Cl)c(NC(=O)c4coc(N)n4)c3)cn2)CC1` (mixture of isomers) [Example 80, 2-Amino-N-(2-chloro-5-{1-[4-(methylamino)cyclohexyl]-1H-pyrazol-4-yl}phenyl)-1,3-oxazole-4-carboxamide], the concentration for a half-maximal effect (EC50) in experiment [1] is < 100 nM. Also, the half-inhibitory concentration (IC50) in experiment [2] was < 10 nM.
`CN1CC(n2cc(-c3ccc(Cl)c(NC(=O)c4coc(N)n4)c3)cn2)C1` [Example 45, 2-Amino-N-{2-chloro-5-[1-(1-methylazetidin-3-yl)-1H-pyrazol-4-yl]phenyl}-1,3-oxazole-4-carboxamide] gave a concentration giving a half-maximal response (EC50) in experiment [1] of 100 to 250 nM. Moreover, the IC50 in experiment [2] was > 100 nM.

Broadly, the EC50 is the concentration needed to bring the measured effect to its halfway point. One may read the IC50 as the midpoint of a concentration-inhibition curve. High values mean weaker potency, low ones greater potency.
